Molecular target: human P2X3 receptor (Homo sapiens (Human), UniProt P56373)
Test: P2X3 receptor inhibition, ATP-evoked Fluo-3 calcium fluorescence (FDSS 3000)
Type: cell-based
Conditions: C6BU-1 cell transfected with human P2X3 receptor gene; ATP-evoked Fluo-3 fluorescence
Outline: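 C6BU-1 cells stably transfected with human P2X3, loaded with 4 μM Fluo-3-AM for 1 h at 37 °C in HEPES buffer pH 7.5 with probenecid. Compound added 5 min before 40 nM ATP solution; fluorescence followed 3 min. IC50 from ratio of peak post-ATP to baseline fluorescence.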

Chain of human P2X3 receptor (P56373 whole entry): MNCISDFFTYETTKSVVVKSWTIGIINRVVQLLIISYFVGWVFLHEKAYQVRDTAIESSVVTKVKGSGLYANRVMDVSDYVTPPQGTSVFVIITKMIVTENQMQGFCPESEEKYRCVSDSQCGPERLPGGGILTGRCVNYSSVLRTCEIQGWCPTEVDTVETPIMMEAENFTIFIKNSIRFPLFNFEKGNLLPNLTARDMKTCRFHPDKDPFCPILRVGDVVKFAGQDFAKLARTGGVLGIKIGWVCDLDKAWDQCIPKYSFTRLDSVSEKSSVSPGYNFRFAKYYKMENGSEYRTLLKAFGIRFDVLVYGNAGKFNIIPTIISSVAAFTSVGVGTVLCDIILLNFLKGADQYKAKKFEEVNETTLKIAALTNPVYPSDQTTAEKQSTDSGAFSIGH

Row | SMILES | IC50
1 | COCCOc1ccccc1C1C(C(=O)C(C)(C)C)=C(O)C(=O)N1c1ccc(-c2ccon2)cc1 (stereo not drawn) [Compound I-098] | 370 nM
2 | CCOc1ccccc1C1C(C(=O)CC(C)C)=C(O)C(=O)N1c1ccc(-c2ccoc2)cc1 (stereo not drawn) [Compound I-347] | 47 nM
3 | COc1ccccc1C1C(C(=O)C(C)(C)C)=C(O)C(=O)N1c1ccc(-c2cscc2C)cc1 (stereo not drawn) [Compound I-193] | 994 nM
4 | CSc1ccccc1C1C(C(=O)C(C)C)=C(O)C(=O)N1c1ccc(-c2csc(C)c2)cc1 (stereo not drawn) [Compound I-559] | 40 nM
5 | CC(C)C(=O)C1=C(O)C(=O)N(c2ccc(-c3ccsc3)cc2)C1c1ccccc1OC(F)(F)F (stereo not drawn) [Compound I-302] | 34 nM
6 | COC(=O)COc1ccccc1C1C(C(=O)C(C)(C)C)=C(O)C(=O)N1c1ccc(-c2ccon2)cc1 (stereo not drawn) [Compound I-133] | 367 nM
7 | CC(C)C(=O)C1=C(O)C(=O)N(c2ccc(-c3ccsc3)cc2)C1c1ccccc1OCC(N)=O (stereo not drawn) [Compound I-189] | 14 nM
8 | COCCOc1ccccc1C1C(C(=O)C(C)C)=C(O)C(=O)N1c1ccc(-c2cccs2)cc1 (stereo not drawn) [Compound I-226] | 12 nM
9 | COCCOc1ccccc1[C@@H]1C(C(=O)C(C)C)=C(O)C(=O)N1c1ccc(-c2ccsc2)cc1 [Compound I-222] | 6 nM
10 | COCc1ccccc1[C@@H]1C(C(=O)C(C)C)=C(O)C(=O)N1c1ccc(-c2ccsc2)cc1 [Compound I-255] | 8 nM
11 | Cc1nc(-c2ccc(N3C(=O)C(O)=C(C(=O)C(C)C)C3c3ccccc3OCC3OCCO3)cc2)no1 (stereo not drawn) [Compound I-501] | 52 nM
12 | Cc1cc(-c2ccc(N3C(=O)C(O)=C(C(=O)CC(C)C)C3c3ccccc3OC(F)(F)F)cc2)cs1 (stereo not drawn) [Compound I-378] | 192 nM
13 | CSc1ccccc1C1C(C(=O)C(C)C)=C(O)C(=O)N1c1ccc(-c2ccsc2)cc1 (stereo not drawn) [Compound I-558] | 8 nM
14 | COCCOc1cc(F)ccc1C1C(C(=O)CC(C)C)=C(O)C(=O)N1c1ccc(-c2ccsc2)cc1 (stereo not drawn) [Compound I-364] | 9 nM
15 | COc1ncccc1C1C(C(=O)C(C)(C)C)=C(O)C(=O)N1c1ccc(-c2ccsc2)cc1 (stereo not drawn) [Compound I-116] | 77 nM
16 | CCc1ccccc1C1C(C(=O)C(C)(C)C)=C(O)C(=O)N1c1ccc(-c2ccon2)cc1 (stereo not drawn) [Compound I-091] | 341 nM

More lines, now with the values ahead:

Row | IC50 | SMILES
17 | 739 nM | COc1ccccc1C1c2c(C(C)(C)C)n[nH]c2C(=O)N1c1ccc(CN(C)C)cc1 (stereo not drawn) [II-072]
18 | 44 nM | COc1ccccc1C1c2c(C(C)(C)CO)n[nH]c2C(=O)N1c1ccc(-c2nc(C)no2)cc1 (stereo not drawn) [II-138]
19 | 811 nM | COc1ccccc1C1c2c(C(C)(C)C)n[nH]c2C(=O)N1c1ccc(-c2cccn2C)cc1 (stereo not drawn) [II-205]
20 | 44 nM | CC(=O)N(C)c1ccccc1C1c2c(C(C)C)n[nH]c2C(=O)N1c1ccc(-c2ccsc2)cc1 (stereo not drawn) [II-082]
21 | 8 nM | COC(=O)COc1ccccc1C1c2c(C(C)(C)C)n[nH]c2C(=O)N1c1ccc(-c2ccsc2)cc1 (stereo not drawn) [II-020]
22 | 27 nM | CC(C)(C)c1n[nH]c2c1C(c1cccnc1OCCO)N(c1ccc(-c3ccoc3)cc1)C2=O (stereo not drawn) [II-041]
23 | 650 nM | COc1ccccc1C1c2c(C(C)(C)C)n[nH]c2C(=O)N1c1ccc(C(C)(C)O)cc1 (stereo not drawn) [II-151]
24 | 189 nM | CC(C)c1n[nH]c2c1C(c1ccccc1N)N(c1ccc(-c3ccsc3)cc1)C2=O (stereo not drawn) [II-081]
25 | 55 nM | COc1ccccc1C1c2c(C(C)(C)CO)n[nH]c2C(=O)N1c1ccc(-c2cc(C)no2)cc1 (stereo not drawn) [II-136]
26 | 344 nM | COc1ccc(-c2n[nH]c3c2C(c2ccccc2OC)N(CCCc2ccco2)C3=O)cc1 (stereo not drawn) [II-231]
27 | 4 nM | CC(C)c1n[nH]c2c1C(c1ccccc1NS(C)(=O)=O)N(c1ccc(-c3ccsc3)cc1)C2=O (stereo not drawn) [II-088]
28 | 17 nM | COc1ccccc1C1c2c(C(C)(C)C)n[nH]c2C(=O)N1c1ccc(-c2ccsc2)cc1 (stereo not drawn) [II-204]
29 | 3 nM | CC(C)(C)c1n[nH]c2c1C(c1ccccc1OCCO)N(c1ccc(-c3ccsc3)cc1)C2=O (stereo not drawn) [II-104]
30 | 13 nM | CC(C)(C)c1n[nH]c2c1C(c1ccccc1OCCO)N(c1ccc(-c3ccco3)cc1)C2=O (stereo not drawn) [II-105]
